# Measured values: US20100048396A1, “METHOD, USE AND AGENT FOR PROTECTING A PLANT AGAINST PYTHIUM AND RHIZOCTONIA” (priority 2007, published 2010)
# Columns and labels:
# Rhizoctonia solani = experiment: Protection of corn against infestation with Rhizoctonia solani (seed treatment, infested small-parcel fields); type: in vivo; conditions: corn seed treated with triticonazole 5 gai/100 kg alone; seedlings surviving (from 50) after sowing and emergence; untreated control 46
# Protocol: An isolate of Rhizoctonia solani originally isolated from maize was grown on potatoe dextrose agar (PDA) at 20° C. in the dark for 14 days. A vermiculite/maize meal/distilled water mixture (2.7:1:1) was autoclaved at 121° C. for 30 minutes in poly-ethylene “autoclave” bags. Once cool, the mixture was inoculated with 40×5 mm^2 agar disks cut from the Rhizoctonia solani cultures and mixed well. The inoculum bags were sealed and then incubated for 14 days at 22° C. with 16 hours light and 8 hours dark periods. Successful growth was checked by extracting granules of vermiculate and plating on PDA. Infested soil was prepared by mixing peat: sharp washed sand (3:1), removing any large peat clumps, adding maize meal mixture (9:1) and combining the two wells.
# (§1) Corn seed was either treated with a slurry comprising triticonazole and/or prochloraz in water so that the amounts indicated below were applied per 100 kg of seed, or left untreated (control). Small-parcel fields (1×2 m) were infested with Rhizoctonia solani as described above. After sowing and emergence the number of seedlings surviving (from 50) was determined.
# Pythium ultimum = experiment: Protection of corn against infestation with Pythium ultimum (seed treatment, infested small-parcel fields); type: in vivo; conditions: corn seed treated with triticonazole 5 gai/100 kg alone; based on a weighted 0-5 infection scale; untreated control 70
# Protocol: An isolate of Pythium ultimum originally isolated from maize was grown on potatoe dex-trose agar (PDA) at 22° C. in the dark for 14 days. A vermiculate/maize meal/distilled water mixture (2.7:1:1) was autoclaved at 121° C. for 30 minutes in polyethylene “auto-clave” bags. Once cool, the mixture was inoculated with 40×5 mm^2 agar disks cut from the Pyhtium ultimum cultures and mixed well. The inoculum bags were sealed and then incubated for 14 days at 21° C. for 14 days in the dark. Successful growth was checked by extracting granules of vermiculate and plating on PDA. Infested soil was prepared by mixing peat: sharp washed sand (3:1) removing any large peat clumps, adding maize meal mixture (40:60 v/v) and combining the two well.
# as §1, with “Pythium ultimum” for “Rhizoctonia solani”, “the” for “the number of”, “the disease index (based on a weighted 0-5 infection scale)” for “surviving (from 50)”
structure (smiles),measurement,setting,value
"CC1(C)CC/C(=C\c2ccc(Cl)cc2)C1(O)Cn1cncn1 (centres unmarked) [Triticonazole, (E)-5-(4-chlorbenzyliden)-2,2-dimethyl-1-(1H-1,2,4-triazol-1-ylmethyl)cyclopentanol]",Percentage of plants surviving,Rhizoctonia solani,36%
same,Disease index,Pythium ultimum,71%
